Assay results taken from PMC8343220, “The selectivity of α‐adrenoceptor agonists for the human α1A, α1B, and α1D‐adrenoceptors” (Pharmacology Research & Perspectives, 2021).

Key:
human α1A‐adrenoceptor [1] = target: T1, human α1A‐adrenoceptor (Homo sapiens, UniProt P35348); experiment: ^3H‐prazosin whole‐cell radioligand binding, CHO‐α1A cells
T1 construct: expressed in transfected cells; host or cells: CHO-K1
T1 sequence (P35348 1-466): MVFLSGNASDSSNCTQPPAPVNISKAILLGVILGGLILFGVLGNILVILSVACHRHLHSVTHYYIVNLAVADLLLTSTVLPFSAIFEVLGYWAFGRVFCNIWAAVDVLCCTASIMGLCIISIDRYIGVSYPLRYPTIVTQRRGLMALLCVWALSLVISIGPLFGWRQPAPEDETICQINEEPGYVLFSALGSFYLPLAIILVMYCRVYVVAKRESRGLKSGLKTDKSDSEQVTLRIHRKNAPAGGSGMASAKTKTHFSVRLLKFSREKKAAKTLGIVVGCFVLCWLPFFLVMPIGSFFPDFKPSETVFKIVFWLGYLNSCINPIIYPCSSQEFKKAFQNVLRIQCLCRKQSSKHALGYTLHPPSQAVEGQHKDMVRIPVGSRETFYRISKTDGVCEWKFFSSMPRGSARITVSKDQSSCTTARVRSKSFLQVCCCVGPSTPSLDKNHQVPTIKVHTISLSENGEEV

[2] = target: T2, human α1D‐adrenoceptor (full length) (Homo sapiens, UniProt P25100); experiment: ^3H‐prazosin whole‐cell radioligand binding, CHO‐α1D cells
T2 construct: human α1D‐adrenoceptor (full length) were used; expressed in transfected cells; host or cells: CHO-K1
T2 sequence (P25100 1-572): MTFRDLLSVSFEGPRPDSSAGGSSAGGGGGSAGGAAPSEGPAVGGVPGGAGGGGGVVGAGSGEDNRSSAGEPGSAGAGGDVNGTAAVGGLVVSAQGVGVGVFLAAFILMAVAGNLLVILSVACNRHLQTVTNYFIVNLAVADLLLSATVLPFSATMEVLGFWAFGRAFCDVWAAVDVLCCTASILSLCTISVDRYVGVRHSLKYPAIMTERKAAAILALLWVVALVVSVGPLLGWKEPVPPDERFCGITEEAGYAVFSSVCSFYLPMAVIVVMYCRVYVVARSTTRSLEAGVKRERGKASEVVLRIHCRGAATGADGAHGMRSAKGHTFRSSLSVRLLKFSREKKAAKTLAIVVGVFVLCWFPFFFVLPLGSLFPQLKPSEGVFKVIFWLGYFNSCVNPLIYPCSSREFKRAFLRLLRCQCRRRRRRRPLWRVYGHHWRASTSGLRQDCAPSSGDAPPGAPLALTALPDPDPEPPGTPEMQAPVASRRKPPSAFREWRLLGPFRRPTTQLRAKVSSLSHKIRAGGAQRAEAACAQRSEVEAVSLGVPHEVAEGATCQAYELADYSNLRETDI

human α1A‐adrenoceptor [3] = target: T1, human α1A‐adrenoceptor; experiment: ^3H‐cAMP accumulation in the presence of 10 μM forskolin, CHO‐α1A cells; format: cell-based; settings: CHO‐α1A cells
human α1B‐adrenoceptor [4] = target: T3, human α1B‐adrenoceptor (Homo sapiens, UniProt P35368); experiment: Intracellular free calcium mobilization, CHO‐α1B cells; format: cell-based
T3 construct: expressed in transfected cells; host or cells: CHO-K1
T3 sequence (P35368 1-520): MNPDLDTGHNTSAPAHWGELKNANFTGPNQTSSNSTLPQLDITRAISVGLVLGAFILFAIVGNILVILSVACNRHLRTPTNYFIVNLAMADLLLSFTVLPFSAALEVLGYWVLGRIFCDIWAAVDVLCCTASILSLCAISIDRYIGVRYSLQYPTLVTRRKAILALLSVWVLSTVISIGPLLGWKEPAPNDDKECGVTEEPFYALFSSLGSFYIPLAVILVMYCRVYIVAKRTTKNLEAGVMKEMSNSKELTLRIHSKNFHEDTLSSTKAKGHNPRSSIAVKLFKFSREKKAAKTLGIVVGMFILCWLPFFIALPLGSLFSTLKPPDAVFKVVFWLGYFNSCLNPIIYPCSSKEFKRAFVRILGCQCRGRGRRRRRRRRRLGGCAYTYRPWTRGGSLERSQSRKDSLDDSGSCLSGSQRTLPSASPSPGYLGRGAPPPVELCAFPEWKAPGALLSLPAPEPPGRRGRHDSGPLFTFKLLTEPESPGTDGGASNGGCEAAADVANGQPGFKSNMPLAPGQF

human α1A‐adrenoceptor [5] = target: T1, human α1A‐adrenoceptor; experiment: Intracellular free calcium mobilization, CHO‐α1A cells; format: cell-based
[6] = target: T2, human α1D‐adrenoceptor (full length); experiment: ERK1/2‐phosphorylation (Surefire Alphascreen), CHO‐α1D cells; format: cell-based
[7] = system: parental CHO cell line without any transfected receptors; experiment: ^3H‐cAMP accumulation, parent CHO cells without transfected receptors; format: cell-based, Chinese hamster
human α1B‐adrenoceptor [8] = target: T3, human α1B‐adrenoceptor; experiment: ERK1/2‐phosphorylation (Surefire Alphascreen), CHO‐α1B cells; format: cell-based
[9] = system: parental CHO cell line without any transfected receptors; experiment: Forskolin‐stimulated cAMP accumulation, parent CHO cells without transfected receptors; format: cell-based, Chinese hamster
human α1A‐adrenoceptor [10] = target: T1, human α1A‐adrenoceptor; experiment: ERK1/2‐phosphorylation (Surefire Alphascreen), CHO‐α1A cells; format: cell-based
[11] = system: parental CHO cell line without any transfected receptors; experiment: ERK1/2‐phosphorylation, parent CHO cells without transfected receptors; format: cell-based, Chinese hamster
human α1B‐adrenoceptor [12] = target: T3, human α1B‐adrenoceptor; settings: CHO‐α1B cells; given as log KD (negative); ligands marked ^a; ref Proudman et al., 2020; cited from earlier work
human α1A‐adrenoceptor [13] = target: T1, human α1A‐adrenoceptor; settings: CHO‐α1A cells; given as log KD (negative); ligands marked ^a; ref Proudman et al., 2020; cited from earlier work
[14] = system: parental CHO cell line without any transfected receptors; experiment: Intracellular calcium mobilization, parent CHO cells without transfected receptors; format: cell-based, Chinese hamster
[15] = target: T2, human α1D‐adrenoceptor (full length); experiment: Intracellular free calcium mobilization, CHO‐α1D cells; format: cell-based
human α1A‐adrenoceptor [16] = target: T1, human α1A‐adrenoceptor; experiment: ^3H‐cAMP accumulation, CHO‐α1A cells; format: cell-based; settings: CHO‐α1A cells
[17] = target: T2, human α1D‐adrenoceptor (full length); settings: CHO‐α1D cells; ligands marked ^a; ref Proudman et al., 2020; cited from earlier work

SMILES: CCC1(C2=NCCN2)Cc2ccccc2O1 (stereo not drawn) [Eforaxan]
- Affinity selectivity ratio α1A vs α1B (human α1A‐adrenoceptor [1]): 15.8 fold
- Affinity selectivity ratio α1A vs α1D (human α1A‐adrenoceptor [1]): 3.2 fold
- 3H‐prazosin binding Log KD [2]: −4.97
- Affinity selectivity ratio α1B vs α1D [2]: 5.0 fold
- cAMP accumulation (in presence of forskolin) Log EC50 (human α1A‐adrenoceptor [3]; 10 μM forskolin): −5.93 ± 0.13
- cAMP accumulation (in presence of forskolin) Fold increase (human α1A‐adrenoceptor [3]; fold increase of the forskolin response): 1.47 ± 0.13 fold
- Intracellular calcium release % ionomycin (human α1B‐adrenoceptor [4]): No response
- Intracellular calcium release Log EC50 (human α1B‐adrenoceptor [4]): No response
- Intracellular calcium release % ionomycin (human α1A‐adrenoceptor [5]): 45.0 ± 2.6%
- Intracellular calcium release Log EC50 (human α1A‐adrenoceptor [5]): −6.83 ± 0.10
- Log efficacy ratio KD /EC50 (human α1A‐adrenoceptor [5]): 1.36
- ERK1/2‐phosphorylation % PDBu at 100 µM [6]: 2.7 ± 1.5%
- cAMP accumulation % forskolin [7]: No response
- ERK1/2‐phosphorylation % PDBu at 100 µM (human α1B‐adrenoceptor [8]): 11.9 ± 2.4%
- cAMP accumulation (in presence of forskolin) % forskolin-stim cAMP [9]: No response
- cAMP accumulation (in presence of forskolin) Log EC50 [9]: No response
- ERK1/2‐phosphorylation % PDBu (human α1A‐adrenoceptor [10]): 76.4 ± 5.2%
- ERK1/2‐phosphorylation Log EC50 (human α1A‐adrenoceptor [10]): −6.12 ± 0.07
- ERK1/2-phosphorylation % PDBu [11]: No response
- ERK1/2-phosphorylation Log EC50 [11]: No response
- Log KD α1B, ^3H‐prazosin whole cell binding (human α1B‐adrenoceptor [12]): −4.27 ± 0.07
- Log KD α1A, ^3H‐prazosin whole cell binding (human α1A‐adrenoceptor [13]): −5.47 ± 0.03
- Intracellular calcium release % ionomycin [14]: No response
- Intracellular calcium release % Ionomycin at 100 µM [15]: 2.8 ± 0.8%
- cAMP accumulation Log EC50 (human α1A‐adrenoceptor [16]; 5 h): −5.47 ± 0.10
- cAMP accumulation % forskolin (human α1A‐adrenoceptor [16]; % of 10 µM forskolin response): 4.0 ± 0.6%
- Log KD α1D, ^3H‐prazosin whole cell binding (single site or first, higher affinity component) [17]: −4.97 ± 0.06
